Laboratory results taken from patent publication US11981641B1, “4,5-bis(4-bromophenyl)-1-hexyl-2-(3,4-dimethoxyphenyl)-1H-imidazole as an antimicrobial compound” (KING FAISAL UNIVERSITY, priority 2023, dated 2024).

Experiments:
Type in all cases: cell-based
Details in all cases: after 10, 20, 40 and 60 minutes at all dilutions 1:100, 1:200, 1:400, 1:800
Staphylococcus aureus = test: antimicrobial screening by agar dilution, St. aureus
Experimental: (§1) The antimicrobial properties of the 4,5-bis(4-bromophenyl)-1-hexyl-2-(3,4-dimethoxyphenyl)-1H-imidazole was studied by the method of agar dilution. Test solutions of each compound was prepared in concentration of 1% using dimethylformamide as a solvent then they were diluted in physiological solution to obtain the final experimental dilutions 1: 100, 1:200, 1:400, 1:800. The effect of these substances were compared with furacillin in a controlled study. The testing microbes used were gram positive bacteria Staphylococcus aureus, gram negative bacteria Pseudomonas aeruginosa and Escherichia coli and Candida albicans fungi were taken. The experiments used for this survey were meat-pentonlu agar (EPA) for cultivation of bacteria and Saburo environment for fungi. Each experiment used 1 ml of test solution on each plate 500 min. Add 2 drops of emulsified with microbes feel. All experimental samples were taken from the agar after 10, 20, 40, 60 minutes in the environment on the basis of Patrk planted. Bacteria were cultivated at a temperature of 37° C. for 1 day and the mushroom was kept in a thermostat for […] at a temperature of 28° C. Then results were checked.

Escherichia coli = test: antimicrobial screening by agar dilution, E. coli
Experimental: as §1

Pseudomonas aeruginosa = test: antimicrobial screening by agar dilution, Ps. aeruginosa
Experimental: as §1

Candida albicans = test: antimicrobial screening by agar dilution, Candida albicans
Experimental: as §1

Measured: inhibition activity

CCCCCCn1c(-c2ccc(OC)c(OC)c2)nc(-c2ccc(Br)cc2)c1-c1ccc(Br)cc1 [4,5-bis(4-bromophenyl)-1-hexyl-2-(3,4-dimethoxyphenyl)-1H-imidazole]
highest inhibition activity: Staphylococcus aureus | Escherichia coli | Pseudomonas aeruginosa | Candida albicans
